According to ChEMBL document CHEMBL4052670, “The selective cytotoxicity of new triazene compounds to human melanoma cells” (Bioorg Med Chem, 2017):

What was measured:
HaCaT = experiment: Cytotoxicity against human HaCaT cells after 72 hrs by MTS assay; type: cell-based
B16-F10 = experiment: Cytotoxicity against mouse B16F10 cells after 72 hrs by MTS assay; type: functional, cell-based; settings: B16-F10, 72 h
[1] = Apparent partition coefficient, log P of the compound in 1-octanol/phosphate buffer at pH 7.4 measured after 30 mins by HPLC analysis; type: physicochemical; settings: read-out: LogD7.4
mushroom tyrosinase [2] = molecular target: T1, mushroom tyrosinase (Agaricus bisporus, UniProt C7FF04+C7FF05+O42713+Q00024); experiment: Drug metabolism assessed as mushroom tyrosinase-mediated compound consumption in presence of 100 U/ml of tyrosinase by HPLC method; type: ADME; settings: read-out: Drug metabolism
[3] = Cytotoxicity against human MNT1 cells after 72 hrs by MTS assay; type: functional, cell-based; settings: MNT-1, 72 h
[4] = Prodrug activation assessed as mushroom tyrosinase-mediated compound hydrolysis by measuring Pseudo first-order rate constants in presence of 100 U/ml of tyrosinase by HPLC analysis; settings: agaricus bisporus
[5] = Half life in phosphate buffered saline at pH 7.4 by HPLC analysis; type: physicochemical
[6] = Prodrug activation assessed as mushroom tyrosinase-mediated compound hydrolysis by measuring half life in presence of 100 U/ml of tyrosinase by HPLC analysis; settings: agaricus bisporus
[7] = Half life in 80% human plasma by HPLC analysis; type: ADME, cell-free
[8] = Stability of the compound in phosphate buffered saline at pH 7.4 assessed as parent compound remaining measured after 8 days by HPLC analysis; type: physicochemical; settings: read-out: Stability
Mushroom tyrosinase [9] = molecular target: T2, Mushroom tyrosinase (Agaricus bisporus, UniProt O42713+Q00024+C7FF04+C7FF05); experiment: Drug metabolism assessed as mushroom tyrosinase-mediated compound hydrolysis by measuring retention time by HPLC method; type: ADME
[10] = Retention time of the compound in phosphate buffered saline at pH 7.4 by HPLC method
Plasma = experiment: Retention time of the compound in 80% human plasma by HPLC method; type: ADME, cell-free
mushroom tyrosinase [11] = molecular target: T1, mushroom tyrosinase; experiment: Drug metabolism assessed as mushroom tyrosinase-mediated compound consumption in presence of 300 U/ml of tyrosinase by HPLC method; type: ADME; settings: read-out: Drug metabolism
[12] = Prodrug activation assessed as mushroom tyrosinase-mediated compound hydrolysis by measuring Pseudo first-order rate constants in presence of 300 U/ml of tyrosinase by HPLC analysis; settings: agaricus bisporus
[13] = Prodrug activation assessed as mushroom tyrosinase-mediated compound hydrolysis by measuring half life in presence of 300 U/ml of tyrosinase by HPLC analysis; settings: agaricus bisporus
[14] = Half life in deuterated phosphate buffer at pH 7.8 by 1H-NMR spectra analysis; type: physicochemical
[15] = test system: N[C@@H](Cc1ccc(O)cc1)C(=O)O; experiment: (§1) Substrate activity at mushroom tyrosinase monophenolase activity by spectrophotometry based Michaelis-Menten plot analysis; settings: Agaricus bisporus
O=C(O)Cc1ccc(O)cc1 = experiment: as §1; settings: Agaricus bisporus
NCCc1ccc(O)c(O)c1 = experiment: as §1; settings: Agaricus bisporus
Mushroom tyrosinase [16] = molecular target: T2, Mushroom tyrosinase; experiment: (§2) Drug metabolism assessed as mushroom tyrosinase-mediated compound oxidation by Michaelis-Menten plot analysis; type: ADME
mushroom tyrosinase [17] = molecular target: T1, mushroom tyrosinase; experiment: as §2; type: ADME; settings: mushroom tyrosinase
Mushroom tyrosinase [18] = molecular target: T2, Mushroom tyrosinase; experiment: Ratio of Kcat to Km for mushroom tyrosinase-mediated compound oxidation; type: ADME

Chain of Mushroom tyrosinase (Agaricus bisporus) (C7FF05 whole entry, looked up): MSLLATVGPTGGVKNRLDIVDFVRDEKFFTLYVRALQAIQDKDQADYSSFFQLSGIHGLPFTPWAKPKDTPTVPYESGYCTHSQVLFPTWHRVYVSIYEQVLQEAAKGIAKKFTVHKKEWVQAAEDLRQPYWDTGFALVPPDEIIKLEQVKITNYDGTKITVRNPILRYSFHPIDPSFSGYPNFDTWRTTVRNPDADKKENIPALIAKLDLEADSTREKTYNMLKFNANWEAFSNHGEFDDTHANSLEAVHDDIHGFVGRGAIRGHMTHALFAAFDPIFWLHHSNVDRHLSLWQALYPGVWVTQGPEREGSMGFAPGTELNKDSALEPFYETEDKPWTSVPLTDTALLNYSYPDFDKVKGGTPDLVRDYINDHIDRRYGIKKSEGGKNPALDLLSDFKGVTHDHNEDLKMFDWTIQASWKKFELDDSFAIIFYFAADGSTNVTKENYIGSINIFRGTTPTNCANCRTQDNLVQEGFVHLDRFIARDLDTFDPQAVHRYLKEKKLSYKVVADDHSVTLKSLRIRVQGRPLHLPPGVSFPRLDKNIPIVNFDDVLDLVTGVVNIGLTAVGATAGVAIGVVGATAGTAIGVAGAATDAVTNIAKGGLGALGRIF
Chain of Mushroom tyrosinase (Agaricus bisporus) (C7FF04 whole entry, looked up): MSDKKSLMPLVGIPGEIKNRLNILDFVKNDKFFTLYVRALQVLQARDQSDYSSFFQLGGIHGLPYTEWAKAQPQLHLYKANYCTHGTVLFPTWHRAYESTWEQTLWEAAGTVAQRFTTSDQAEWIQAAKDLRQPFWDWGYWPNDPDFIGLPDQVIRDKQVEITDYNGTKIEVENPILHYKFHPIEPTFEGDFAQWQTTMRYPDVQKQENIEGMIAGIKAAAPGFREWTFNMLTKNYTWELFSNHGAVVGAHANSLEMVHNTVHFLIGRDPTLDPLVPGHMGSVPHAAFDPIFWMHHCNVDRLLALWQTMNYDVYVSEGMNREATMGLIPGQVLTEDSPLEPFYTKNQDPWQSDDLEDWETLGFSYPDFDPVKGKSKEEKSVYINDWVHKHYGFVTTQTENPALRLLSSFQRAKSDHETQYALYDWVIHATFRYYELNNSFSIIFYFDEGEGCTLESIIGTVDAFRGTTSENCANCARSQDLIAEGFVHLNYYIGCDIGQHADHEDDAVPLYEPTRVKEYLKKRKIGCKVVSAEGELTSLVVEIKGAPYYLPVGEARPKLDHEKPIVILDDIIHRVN
Chain of Mushroom tyrosinase (Agaricus bisporus) (Q00024 whole entry, looked up): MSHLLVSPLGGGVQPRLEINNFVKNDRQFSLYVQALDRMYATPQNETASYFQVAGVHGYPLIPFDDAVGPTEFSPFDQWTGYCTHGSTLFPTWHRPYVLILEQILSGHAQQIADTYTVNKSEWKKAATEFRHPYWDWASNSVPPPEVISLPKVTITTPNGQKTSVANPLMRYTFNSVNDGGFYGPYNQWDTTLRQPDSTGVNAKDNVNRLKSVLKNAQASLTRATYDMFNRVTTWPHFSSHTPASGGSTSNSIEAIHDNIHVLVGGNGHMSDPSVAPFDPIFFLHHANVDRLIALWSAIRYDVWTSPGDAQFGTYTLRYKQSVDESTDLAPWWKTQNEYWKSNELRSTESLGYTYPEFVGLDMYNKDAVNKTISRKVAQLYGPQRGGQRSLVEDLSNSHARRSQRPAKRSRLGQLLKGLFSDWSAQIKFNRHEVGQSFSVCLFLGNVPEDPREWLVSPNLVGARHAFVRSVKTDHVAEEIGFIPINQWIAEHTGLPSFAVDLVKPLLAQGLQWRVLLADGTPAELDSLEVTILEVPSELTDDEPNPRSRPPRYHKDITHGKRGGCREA
Chain of Mushroom tyrosinase (Agaricus bisporus) (O42713 whole entry, looked up): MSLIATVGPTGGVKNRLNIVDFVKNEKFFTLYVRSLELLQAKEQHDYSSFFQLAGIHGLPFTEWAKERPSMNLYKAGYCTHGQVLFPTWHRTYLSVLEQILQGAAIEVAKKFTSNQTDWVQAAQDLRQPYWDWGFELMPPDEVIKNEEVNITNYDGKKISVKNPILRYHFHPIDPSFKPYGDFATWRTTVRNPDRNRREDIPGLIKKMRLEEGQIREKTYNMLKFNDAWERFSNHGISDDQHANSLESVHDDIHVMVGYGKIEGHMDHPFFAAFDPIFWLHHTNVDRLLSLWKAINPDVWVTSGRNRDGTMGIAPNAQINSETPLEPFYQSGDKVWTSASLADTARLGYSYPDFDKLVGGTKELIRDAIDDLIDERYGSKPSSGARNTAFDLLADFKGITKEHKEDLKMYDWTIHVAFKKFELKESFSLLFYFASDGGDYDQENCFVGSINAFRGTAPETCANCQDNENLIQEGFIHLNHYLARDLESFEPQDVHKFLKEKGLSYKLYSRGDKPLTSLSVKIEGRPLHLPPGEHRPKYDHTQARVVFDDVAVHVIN

Compound	IC50 (HaCaT)	IC50 (B16-F10)	logD at 0.5 h [1]	IC50 [3]	half-life [5]	t1/2 [6]	half-life [7]	half-life [14]	other results
COC(=O)c1ccc(/N=N/N(C)C(=O)CCc2ccc(O)cc2)cc1	75 to 150 µM	> 75 µM	3.23	> 75 µM	102 h	0.041 to 0.0417 h	7.3 h		metabolised (mushroom tyrosinase [2]): 100%; K [4]: 4.7 ×10⁻³ /s
CN(/N=N/c1ccc(Br)cc1)C(=O)CCCCc1ccc(O)cc1	> 75 µM	52.2 µM	4.32	45.8 µM		0.108 h	162 h		remaining at 192 h [8]: 100%
Nc1ccccc1 [ANILINE]									Retention time (Mushroom tyrosinase [9]): 2 to 2.1 min; Retention time [10]: 2.4 min; Retention_time (Plasma): 2 min
CN(/N=N/c1ccc(C#N)cc1)C(=O)CCc1ccc(O)cc1	75 to 150 µM	> 75 µM	3.4	> 75 µM	76 h	0.025 h	5.8 h		metabolised (mushroom tyrosinase [2]): 100%; K [4]: 7.9 ×10⁻³ /s
CN(/N=N/c1ccc(C#N)cc1)C(=O)CCc1cccc(O)c1	75 to 150 µM	> 75 µM	3.24	> 75 µM	60.1 h		2.7 h		metabolised (mushroom tyrosinase [11]): 91.1%; Retention_time (Plasma): 8.8 min; K [12]: 9.9 ×10⁻⁶ /s; t1/2 [13]: 19.45 h
CN(/N=N/c1nc(OCc2ccccc2)c2nc[nH]c2n1)C(=O)c1cccnc1								22.1 to 58.3 h	
CN(/N=N/c1nc(OCc2ccccc2)c2nc[nH]c2n1)C(=O)c1ccc([N+](=O)[O-])cc1								22.1 to 58.3 h	
CCOc1nc(/N=N/N(C)C(=O)Oc2ccc([N+](=O)[O-])cc2)nc2[nH]cnc12								0.4 to 58.3 h	
CCOC(=O)N(C)/N=N/c1nc(OCc2ccccc2)c2nc[nH]c2n1								0.4 to 58.3 h	
Cn1nnc2c(C(N)=O)ncn2c1=O [TEMOZOLOMIDE]		> 75 µM		> 75 µM					
Mushroom tyrosinase (Agaricus bisporus) (from UniProt O42713+Q00024+C7FF04+C7FF05)									Km [15]: 250 µM; Km (O=C(O)Cc1ccc(O)cc1): 1910 µM; Km (NCCc1ccc(O)c(O)c1): 280 µM
CC(=O)c1ccc(/N=N/N(C)C(=O)CCc2ccc(O)cc2)cc1	75 to 150 µM	> 75 µM	3.05	> 75 µM	123 h	0.06 to 0.061 h	14.6 h		metabolised (mushroom tyrosinase [2]): 100%; K [4]: 3.2 ×10⁻³ /s
CN(/N=N/c1nc(OCc2ccccc2)c2nc[nH]c2n1)C(=O)Oc1ccccc1								0.4 to 58.3 h	
COC(=O)c1ccc(/N=N/N(C)C(=O)CCCCc2ccc(O)cc2)cc1	75 to 150 µM	> 75 µM	3.9	> 75 µM	124 h	0.06 h	17.4 h		Kcat (Mushroom tyrosinase [16]): 0.013 s⁻¹; Vmax (Mushroom tyrosinase [16]): 0.018 µM/min; Km (mushroom tyrosinase [17]): 1080 µM; Kcat/Km (Mushroom tyrosinase [18]): 13.88 M⁻¹ s⁻¹
COC(=O)c1ccc(/N=N/N(C)C(=O)CCc2ccc(OC(=O)CCc3ccc(O)cc3)cc2)cc1						0.107 h			K [4]: 1.8 ×10⁻³ /s
CC(=O)c1ccc(/N=N/N(C)C(=O)CCCCc2ccc(O)cc2)cc1	> 100 µM	> 75 µM	4	> 75 µM		0.0218 h	32.7 h		remaining at 192 h [8]: 100%
COC(=O)c1ccc(/N=N/N(C)C(=O)CCc2cccc(O)c2)cc1	75 to 150 µM	> 75 µM	3.42	> 75 µM	94.7 h		7.8 h		Retention_time (Mushroom tyrosinase [9]): 12.3 min; metabolised (mushroom tyrosinase [11]): 97.5%; Retention time [10]: 12.5 min; K [12]: 9.1 ×10⁻⁶ /s; t1/2 [13]: 21.17 h
CN(/N=N/c1nc(OCc2ccccc2)c2nc[nH]c2n1)C(=O)c1ccccc1								22.1 to 58.3 h	
CC(=O)Nc1ccc(OC(=O)N(C)/N=N/c2nc(OCc3ccccc3)c3nc[nH]c3n2)cc1								0.4 to 58.3 h	
CCOc1nc(/N=N/N(C)C(=O)Oc2ccc(S(N)(=O)=O)cc2)nc2[nH]cnc12								0.4 to 58.3 h	
CN(/N=N/c1nc(OCc2ccccc2)c2nc[nH]c2n1)C(=O)Oc1ccc(C(N)=O)cc1								0.4 to 58.3 h	
CCOC(=O)c1ccc(/N=N/N(C)C(=O)CCCCc2ccc(O)cc2)cc1	> 150 µM	> 75 µM	4.5	> 75 µM		0.08 h	26.3 h		remaining at 192 h [8]: 100%
CN(/N=N/c1ccc(C#N)cc1)C(=O)CCCCc1ccc(O)cc1	75 to 150 µM	> 75 µM	4.3	> 75 µM	82.5 h	0.07 h	11.8 h		Retention_time (Mushroom tyrosinase [9]): 9.8 min; Kcat (Mushroom tyrosinase [16]): 0.009 s⁻¹; Vmax (Mushroom tyrosinase [16]): 0.012 µM/min; Km (mushroom tyrosinase [17]): 860 µM; Kcat/Km (Mushroom tyrosinase [18]): 1.39 M⁻¹ s⁻¹
CN(/N=N/c1ccc(C#N)cc1)C(=O)Cc1ccc(O)cc1			2.99		48 h	0.467 to 0.468 h	1.48 h		
CN(/N=N/c1ccc(C(N)=O)cc1)C(=O)CCCCc1ccc(O)cc1	75 to 150 µM	> 75 µM	3.6	> 75 µM	182 h	0.0967 h	55.4 h		
CN(/N=N/c1ccc(C(N)=O)cc1)C(=O)CCc1ccc(O)cc1	75 to 150 µM	> 75 µM	2.8	> 75 µM	118 h	0.0767 to 0.077 h	48.5 h		metabolised (mushroom tyrosinase [2]): 100%; K [4]: 2.5 ×10⁻³ /s
Cc1ccc(/N=N/N(C)C(=O)CCCCc2ccc(O)cc2)cc1	> 150 µM	57.6 µM	4	64.6 µM		0.0123 h	79.7 h		remaining at 192 h [8]: 100%
CC(=O)c1ccc(/N=N/N(C)C(=O)CCc2ccc(OC(=O)CCc3ccc(O)cc3)cc2)cc1						0.0917 h			K [4]: 2.1 ×10⁻³ /s
CC(=O)N(C)/N=N/c1nc(OCc2ccccc2)c2nc[nH]c2n1								22.1 to 58.3 h	
CCOc1nc(/N=N/N(C)C(=O)Oc2ccc(C(=O)OC)cc2)nc2[nH]cnc12								0.4 to 58.3 h	
